# Assay results from article PMC10888562 (International Journal of Molecular Sciences, 2024).
# Read-outs that look alike come from different tables or passages of the source.
# Assays:
# [1] = system: HT29 colon; assay: MTT cell viability assay (GI50), HT29; assay type: cell-based, human; details: for SCI: GI50 (MCF10A)/GI50 (HT29); for GI50: MTT
# [2] = system: histone deacetylase (HDAC); assay: Fluorometric HDAC activity assay on extracts of treated HT29 cells; assay type: cell-based, human; details: HT29 colon cells treated 72 h at GI50 concentration; lower RFU = decline in HDAC activity; HT29 extract control 5154 ± 40
# Protocol: All values are expressed as RFU.
# To study the HDAC activity in HT29 treated cells, a Fluorometric HDAC Activity Assay Kit ab156064 (Abcam, Cambridge, MA, USA) was used and all sample preparations were made based on the manufacturer’s protocol. A total of 10^6 cells/mL of HT29 cells were seeded in DMEM with serum deprivation for 18 h to synchronise the cells. […] Cells were then washed with cold PBS and resuspended in lysis buffer (10 mM Tris HCl (pH 7.5), 10 mM NaCl, 15 mM MgCl2, 250 mM sucrose, 0.5% NP-40 and 0.1 mM EGTA) and lysed on ice for 20 min. Cells were centrifuged through 4 mL of sucrose cushion (30% sucrose, 10mM Tris HCl (pH 7.5), 10 mM NaCl and 3mM MgCl2) at 1300× g for 10 min at 4 °C. Supernatant was discarded and the pellet was washed and resuspended in extraction buffer (50 mM HEPES-KOH (pH 7.5), 420 mM NaCl, 0.5 mM EDTA 2Na, 0.1 mM EGTA and 10% glycerol) and then sonicated for 30 s. Nuclei were lysed for 30 min on ice and centrifuged at 20,000× g for 30 min. The supernatant was collected, and the samples were prepared for the fluorometric assay according to the manufacturer’s protocol (Histone Deacetylase (HDAC) Activity Assay Fluorometric Kit ab156064, Abcam). The changes in the relative fluorescence intensity (expressed as RFU) were recorded each minute over 60 min using the Glo-Max®-Multimode microplate reader (Promega Corporation, Alexandra, VIC, Australia) at an excitation/emission of 355/460 nm.
# [3] = system: cisplatin-resistant ADDP ovarian variant; assay: MTT cell viability assay (GI50), ADDP; assay type: cell-based, human; details: for SCI: GI50 (MCF10A)/GI50 (ADDP); for GI50: cisplatin-resistant ADDP ovarian variant, MTT
# [4] = Reduction with ascorbic acid (AsA) followed by 1H-NMR and 1D-195Pt-NMR; assay type: physicochemical; details: PBS, DMSO-d6, 37 °C; for Approximate Reduction Time Points T50%: time at which 50% of reduction occurs; for Approximate Reduction Time Points T100%: time at which 100% of reduction occurs
# Protocol: The biological reductant selected for this study is AsA. Briefly, sequential ^1H-NMR experiments were performed for 1 h at 37 °C, proceeded by 1D-^195Pt-NMR at 400 and −2800 ppm (30 min per region). It is noteworthy that the purity of each complex was examined prior the reduction experiments ensuring that no traces of platinum(II) species were evident in the samples used. All complexes were dissolved in PBS and DMSO-d6, without the reductant. Preliminary 1D-^195Pt-NMR measurements were conducted at 37 °C at 400 and −2800 ppm. […] Upon treatment of the platinum(IV) complexes with AsA, there was considerable reduction observed in the ^1H-NMR and 1D-^195Pt-NMR spectra acquired (Figures S31–S36). Notable changes in chemical multiplicity were recorded in the ^1H-NMR reduction spectra of P-5B3A, 5-5B3A and 56-5B3A (Figures S31, S33 and S35), especially along the aromatic region. The estimated reduction time points for P-5B3A, 5-5B3A and 56-5B3A are also outlined in Table 3.
# The reduction behaviour of P-5B3A, 5-5B3A and 56-5B3A was investigated using ^1H-NMR and 1D-^195Pt-NMR spectroscopy, using previously established methods.
# [5] = system: A2780 ovarian; set-up: method as in PMID 36142383, PMID 37173934, PMID 36296713; details: cited from earlier work
# [6] = system: Du145 prostate; set-up: method as in PMID 36142383, PMID 37173934, PMID 36296713; details: cited from earlier work
# [7] = system: cisplatin-resistant ADDP ovarian variant; set-up: method as in PMID 36142383, PMID 37173934, PMID 36296713; details: cited from earlier work
# [8] = system: MIA pancreas; set-up: method as in PMID 36142383, PMID 37173934, PMID 36296713; details: cited from earlier work
# [9] = system: H460 lung; set-up: method as in PMID 36142383, PMID 37173934, PMID 36296713; details: cited from earlier work
# [10] = system: non-tumour-derived MCF10A breast line; set-up: method as in PMID 36142383, PMID 37173934, PMID 36296713; details: cited from earlier work
# [11] = system: multiple human cell lines; set-up: method as in PMID 36142383, PMID 37173934, PMID 36296713; details: average over all cell lines; cited from earlier work
# [12] = system: MCF-7 breast; set-up: method as in PMID 36142383, PMID 37173934, PMID 36296713; details: cited from earlier work
# [13] = system: A431 skin; set-up: method as in PMID 36142383, PMID 37173934, PMID 36296713; details: cited from earlier work
# [14] = system: BE2-C neuroblastoma; set-up: method as in PMID 36142383, PMID 37173934, PMID 36296713; details: cited from earlier work
# [15] = system: U87 glioblastoma; set-up: method as in PMID 36142383, PMID 37173934, PMID 36296713; details: cited from earlier work
# [16] = system: HT29 colon; set-up: method as in PMID 36142383, PMID 37173934, PMID 36296713; details: cited from earlier work
# [17] = system: SJ-G2 glioblastoma; set-up: method as in PMID 36142383, PMID 37173934, PMID 36296713; details: cited from earlier work
Molecule,SCI [1],GI50 ([1]; HT29 colon) [nM],HDAC Inhibition at 72 h [2] [RFU],SCI [3],GI50 [3] [nM],Approximate Reduction Time Points T50% [4] [min],Approximate Reduction Time Points T100% [4] [min],"fold more potent than cisplatin ([1]; HT29 colon, GI50 ratio)","fold more potent than cisplatin ([3]; ADDP, GI50 ratio)",also measured
"[Pt^IV(5,6-Me2phen)(SS-DACH)(5B3A)(OH)]^2+ [56-5B3A]",0.75,4.4 ± 1.6,2550 ± 57,0.55,6 ± 3,0 to 5,10,,,fold more potent than 56MESS ([3]; ADDP): 0.5 fold
[Pt^IV(5-Mephen)(SS-DACH)(5B3A)(OH)]^2+ [5-5B3A],1.06,18 ± 0.67,2791 ± 72,0.83,23 ± 0.88,5 to 10,30,~630 fold,~1220 fold,
"N.N.[Cl][Pt][Cl] [Cisplatin, cis-diammineplatinum(II) dichloride]",0.46,,3698 ± 59,0.19,,,,,,GI50 [5]: 1000 ± 100 nM; GI50 [6]: 1200 ± 100 nM; GI50 [7]: 28000 nM; GI50 [8]: 7500 ± 1300 nM; GI50 [9]: 900 ± 200 nM; GI50 [10]: 5200 ± 520 nM; GI50 [11]: 5840 ± 610 nM; GI50 [12]: 6500 ± 800 nM; GI50 [13]: 2400 ± 300 nM; GI50 [14]: 1900 ± 200 nM; GI50 [15]: 3800 ± 1100 nM; GI50 [16]: 11300 nM; GI50 [17]: 400 ± 100 nM
[Pt^IV(phen)(SS-DACH)(5B3A)(OH)]^2+ [P-5B3A],1.40,200 ± 27,3620 ± 35,0.85,330 ± 8.8,10 to 15,60,at least 57 fold,at least 85 fold,"fold more potent than carboplatin ([1]; HT29 colon, GI50 ratio): ≥ 250 fold; fold more potent than oxaliplatin ([1]; HT29 colon, GI50 ratio): ≥ 5 fold; fold more potent than carboplatin ([3]; ADDP, GI50 ratio): 152 fold"
